≈ marks a conversion by molar mass, not a printed value. *1 amine or outer side, *2 acyl side, *3 side chain or, on linkers, in order; H or OH if unused. Where a SMILES comes first, the peptide text is derived from it. Bridges are numbered along the chain shown (N, C = ends). [ ]: non-standard residue; d: D form. X1 = O=C([C@H](CCCCNCC=[*:3])N[*:1])[*:2]
Experiments:
[1] = tested on: Klebsiella pneumoniae (K. pneumoniae, ATCC10031); format: cell-based; conditions: for MIC K. pneumoniae: ATCC10031; for increase of antimicrobial activity against K. pneumoniae: stapled peptide compared to its linear peptide
Method: (§1) Escherichia coli ( E. coli , ATCC25922), Klebsiella pneumoniae ( K. pneumoniae , ATCC10031), Staphylococcus aureus ( S. aureus , ATCC6538P), Pseudomonas aeruginosa ( P. aeruginosa , ATCC27853) and methicillin‐resistant Staphylococcus aureus (MRSA) were used to evaluate the antimicrobial activity of the peptides and were purchased from BeNa Culture Collection.
(§2) The MICs of the peptides in vitro were determined using the broth microdilution method with minor modifications (Wiegand et al. [2008]). Peptides were incubated with bacteria (about 5 × 10^5 CFU/mL), and PBS was used as the negative control. After 18–24 h of incubation at 37°C, the bacteria were checked for growth by recording the values at OD600, with three replicates in each group.

[2] = tested on: Pseudomonas aeruginosa (P. aeruginosa, ATCC27853); format: cell-based
Method: as §1, §2

[3] = tested on: Escherichia coli (E. coli, ATCC25922); format: cell-based
Method: as §1, §2

[4] = tested on: Staphylococcus aureus (S. aureus, ATCC6538P); format: cell-based; conditions: for MIC S. aureus: ATCC6538; for increase of antimicrobial activity against S. aureus: stapled peptide compared to its linear peptide
Method: as §1, §2

[5] = tested on: methicillin‐resistant Staphylococcus aureus (MRSA); format: cell-based; conditions: for MIC MRSA: methicillin‐resistant; for increase of antibacterial activity against MRSA: stapled peptide compared to its linear peptide
Method: as §1, §2

any bacteria = assay: Wet experiment result (antimicrobial activity of the synthesised peptides, positive/negative); format: cell-based; conditions: experiment data set (Supplement S12)
Text: Supplement MBT2-18-e70121-s002.doc, table 9 | column: Wet Exp. Result

[6] = tested on: gram‐positive and gram‐negative bacteria; conditions: external independent data set; ref Hu et al. ([2022]); cited from earlier work
Text: TABLE 3 Prediction results of external independent data set using 10 models. | column: Result ^a

## CC[C@H](C)[C@H](NC(=O)[C@@H](N)CCCNC(=N)N)C(=O)N[C@@H](CC(C)C)C(=O)N[C@@H](CCCNC(=N)N)C(=O)N[C@@H](CCCCN)C(=O)N[C@@H](CC(C)C)C(=O)N[C@@H](CCCCN)C(=O)N[C@H]1CCCCNC/C=C/CNCCCC[C@@H](C(=O)O)NC(=O)[C@H](CC(C)C)NC(=O)[C@H](Cc2ccccc2)NC(=O)[C@H](CCCNC(=N)N)NC1=O [GAN‐P2‐3‐St] (H-RILRKLK[X1]RFL[X1]-OH; staple (E) 8-12)
[1]
  MIC K. pneumoniae: 1 µg/mL (≈ 0.606 µM)
  increase of antimicrobial activity against K. pneumoniae: 2–4 fold
[2]
  MIC P. aeruginosa: 32 µg/mL (≈ 19.4 µM)
[3]
  MIC E. coli: 16 µg/mL (≈ 9.69 µM)
[4]
  MIC S. aureus: 2 µg/mL (≈ 1.21 µM)
  increase of antimicrobial activity against S. aureus: 4 fold
[5]
  MIC MRSA: 8 µg/mL (≈ 4.85 µM)
  increase of antibacterial activity against MRSA: 16 fold
Any bacteria
  Wet Exp. Result: Positive

## CC[C@H](C)[C@H](NC(=O)[C@H](CCCNC(=N)N)NC(=O)[C@H](CCCCN)NC(=O)[C@@H](N)Cc1c[nH]c2ccccc12)C(=O)N[C@@H](C)C(=O)N[C@H]1CCCCNC/C=C/CNCCCC[C@@H](C(=O)N[C@@H](CCCCN)C(=O)N[C@@H](CC(C)C)C(=O)NCC(=O)N[C@@H](CCCNC(=N)N)C(=O)N[C@@H](C)C(=O)N[C@@H](CCCCN)C(=O)N[C@@H](CC(C)C)C(=O)N[C@@H](Cc2ccccc2)C(=O)O)NC(=O)[C@H](CCCCN)NC(=O)[C@H](CC(C)C)NC(=O)[C@H](CCCNC(=N)N)NC1=O [VAE‐P3‐3‐St] (H-WKRIA[X1]RLK[X1]KLGRAKLF-OH; staple (E) 6-10)
[1]
  MIC K. pneumoniae: 1 µg/mL (≈ 0.436 µM)
  increase of antimicrobial activity against K. pneumoniae: 2–4 fold
[2]
  MIC P. aeruginosa: 16 µg/mL (≈ 6.98 µM)
[3]
  MIC E. coli: 16 µg/mL (≈ 6.98 µM)
[4]
  MIC S. aureus: 4 µg/mL (≈ 1.74 µM)
[5]
  MIC MRSA: 4 µg/mL (≈ 1.74 µM)
  increase of antibacterial activity against MRSA: 4 fold
Any bacteria
  Wet Exp. Result: Positive

## CC[C@H](C)[C@H](NC(=O)[C@@H](N)CCCNC(=N)N)C(=O)N[C@@H](CC(C)C)C(=O)N[C@@H](CCCNC(=N)N)C(=O)N[C@@H](CCCCN)C(=O)N[C@@H](CC(C)C)C(=O)N[C@@H](CCCNC(=N)N)C(=O)N[C@H]1CCCCNC/C=C/CNCCCC[C@@H](C(=O)O)NC(=O)[C@H](CC(C)C)NC(=O)[C@H](Cc2ccccc2)NC(=O)[C@H](CCCCN)NC1=O [GAN‐P2‐2‐St] (H-RILRKLR[X1]KFL[X1]-OH; staple (E) 8-12)
[1]
  MIC K. pneumoniae: 1 µg/mL (≈ 0.606 µM)
  increase of antimicrobial activity against K. pneumoniae: 2–4 fold
[2]
  MIC P. aeruginosa: 32 µg/mL (≈ 19.4 µM)
[3]
  MIC E. coli: 16 µg/mL (≈ 9.69 µM)
[4]
  MIC S. aureus: 2 µg/mL (≈ 1.21 µM)
  increase of antimicrobial activity against S. aureus: 4 fold
[5]
  MIC MRSA: 8 µg/mL (≈ 4.85 µM)
  increase of antibacterial activity against MRSA: 16 fold
Any bacteria
  Wet Exp. Result: Positive

## PKINLⓀILGⓀILRLAAAFK‐NH2 (sidechain bridge or staple) [LS‐PaD1, lysine‐stapled AMP of the external independent data set from Hu et al. ([2022])]
[6]
  Result (stapled AMP with high antimicrobial activity in the experiment): Positive

## GFKDLLⓀGAAⓀALVKTVLF‐NH2 (sidechain bridge or staple) [LS‐AP2, lysine‐stapled AMP of the external independent data set from Hu et al. ([2022])]
[6]
  Result (stapled AMP with high antimicrobial activity in the experiment): Positive

## FFGKVLⓀLIRⓀIF‐NH2 (sidechain bridge or staple) [LS‐DAS, lysine‐stapled AMP of the external independent data set from Hu et al. ([2022])]
[6]
  Result (stapled AMP with high antimicrobial activity in the experiment): Positive

## VKRFKⓀFFRⓀFKKFV‐NH2 (sidechain bridge or staple) [LS‐BF1, lysine‐stapled AMP of the external independent data set from Hu et al. ([2022])]
[6]
  Result (stapled AMP with high antimicrobial activity in the experiment): Positive
